Data taken from PMC8875392, “Design and Characterization of Myristoylated and Non-Myristoylated Peptides Effective against Candida spp. Clinical Isolates” (International Journal of Molecular Sciences, 2022).
Like-named read-outs stand apart in the source and are kept apart here. Where a SMILES comes first, the peptide text is derived from it. The star is where a group is joined. Myristoyl = CCCCCCCCCCCCCC(=O)*

Key:
[1] = Critical micellar concentration (CMC) determination with ANS fluorescent probe; type: physicochemical; conditions: ANS fluorescence (70 μM ANS, λex 356 nm, emission 465 nm) in water, peptide 0.8–10.0 μM, 298 K, intersection of the two lines
Experimental: Lipopeptides usually self-assemble in organized structures that have attracted interest because of their enhanced bactericidal and fungicidal effects. The self-assembly of myristoylated peptides was evaluated by determining the critical micellar concentration (CMC) that represents the concentration of spontaneous associations of monomers by a spectrofluorometric method. 8-anilinonaphtalene-1-sulfonate (ANS) was used as a fluorescent probe since its fluorescence is very sensitive to the microenvironment, showing a blue shift and intensity increase upon changing from a polar to non-polar medium. Therefore, the fluorescence of ANS was monitored as a function of the lipopeptide concentration. […] Fluorescence intensity slowly increases up to a certain lipopeptide concentration and then breaks abruptly, indicating a sudden change in the aggregation state of lipopeptides. For each peptide, the critical micellar concentration (CMC) was evaluated by the intersection of the two lines. […] All the steady-state fluorescence measurements were carried out using a Perkin Elmer LS55 fluorescence spectrophotometer. All the experiments were conducted at 298 K in a thermostatic cell holder and in 20 mM phosphate buffer at pH 7.4 containing 0.8 mM EDTA and 150 mM NaCl unless otherwise specified. The CMC of the N-terminal myristoylated peptides was determined in water by fluorescence spectroscopy using 8-anilinonaphtalene-1-sulfonate (ANS) as the fluorescent probe. […] The ANS was excited at λex = 356 nm, and the fluorescence spectrum was measured for λem = 400–670 nm with excitation and emission bandwidths of 5 nm.

Candida auris = assay: In vivo peptide efficacy in Galleria mellonella larvae infected with C. auris; conditions: larvae infected with Candida auris 10^7 CFU, groups of ten, peptide 640 µg/mL injected at the same time, 30 °C
Experimental: (§1) Multidrug-resistant C. auris was chosen as a representative species for in vivo studies. […] Groups of ten G. mellonella larvae were infected with C. auris and treated with the Pep-B and Myr-B peptides at a concentration of 640 µg/mL (about 400 µM).
(§2) Ten larvae (250–320 mg each) were selected at random for each step in the procedure. Any larvae with darkening of the cuticle were discarded. The test compounds and yeast were injected into the hemocoel in water buffer through the last left proleg (Insumed 30G Pic, Italy, syringe volume 0.5 mL, needle size 30G). The larvae were incubated in the dark for 3 days, and mortality was recorded daily.
An infective dose of yeast Candida auris was determined by injecting groups of ten larvae with a suspension at 10^5, 10^6, 10^7, and 10^8 colony-forming units (CFU) per injection. The larvae were incubated for 3 days at 30 °C. An infective dose was defined as the one that caused an immune response, recognizable by the darkening of the cuticle and able to kill approximately 50% of larvae after 24 h.
(§3) For the peptide efficacy experiment, ten larvae were injected into the last left proleg with a pre-determined infective dose of yeast and the dose of peptides at the same time in a final volume of 10 μL and incubated at 30 °C. Each step in the procedure included six groups of 10 larvae: C. auris-infected larvae (10^7 CFU), infected and treated larvae with peptide B (640 μg/mL), infected and treated larvae with peptide Myr-B (640 μg/mL), treated larvae with peptide B (640 μg/mL), treated larvae with peptide Myr-B (640 μg/mL), and vehicle-injected control (water). The mortality was recorded daily for 3 days.

[2] = system: Galleria mellonella larvae; assay: In vivo peptide toxicity in Galleria mellonella model; conditions: uninfected larvae, groups of ten, peptide 640 µg/mL, single injection, 30 °C
Experimental: as §1, §2, §3

Experimental for rabbit erythrocytes: The hemolytic assay was performed on rabbit erythrocytes (Rockland) maintained in Alsever’s solution (Innovative Research). Briefly, after the removal of Alsever’s solution, the erythrocytes were resuspended in PBS and counted in a hemocytometer. A suspension of 5,000,000 red blood cells was incubated with four dilutions (from 5 µm to 50 µm) of the six peptides in a 96-well microplate. As a negative control, erythrocytes were incubated without the peptides, while as a positive control, erythrocyte was added with triton 10% v/v. The plate was incubated at 37 °C for 2 h and subsequently centrifuged at 1200 rpm × 3 min to separate the pellet from the supernatant. The absorbance of the supernatant was measured at 492 nm. Each point was made in triplicate. The relative OD compared to the positive control defined the percentage of hemolysis [71]. Statistical analysis was performed using two-way ANOVA analysis followed by Bonferroni’s post-test.

SMILES | hemolysis (rabbit erythrocytes; 5 µM) [%] | critical micellar concentration (CMC) [1] [µM] | Peptide efficacy, DAY 1 Alive (Candida auris) | Peptide efficacy, DAY 1 Dead (Candida auris) | Peptide efficacy, DAY 2 Alive (Candida auris) | Peptide efficacy, DAY 2 Dead (Candida auris) | Peptide efficacy, DAY 3 Alive (Candida auris) | Peptide efficacy, DAY 3 Dead (Candida auris) | Peptide toxicity, DAY 1 Dead [2] | Peptide toxicity, DAY 2 Dead [2] | Peptide toxicity, DAY 3 Dead [2] | hemolysis (rabbit erythrocytes; 50 µM) [%]
CCCCCCCCCCCCCC(=O)N[C@@H](Cc1c[nH]c2ccccc12)C(=O)N[C@@H](Cc1ccccc1)C(=O)NCC(=O)N[C@@H](CCCCN)C(=O)N[C@@H](CC(C)C)C(=O)N[C@@H](Cc1ccc(O)cc1)C(=O)N[C@@H](CCCNC(=N)N)C(=O)NCC(=O)N[C@H](C(=O)N[C@H](C(=O)N[C@@H](CCCCN)C(=O)O)[C@@H](C)O)[C@@H](C)CC [Myr-A] (Myristoyl-WFGKLYRGITK-OH; C-terminus assumed) | 0.1 | 4.7 ± 0.8 |  |  |  |  |  |  |  |  |  | 
CCCCCCCCCCCCCC(=O)N[C@@H](Cc1c[nH]c2ccccc12)C(=O)N[C@@H](CCCNC(=N)N)C(=O)NCC(=O)N[C@H](C(=O)N[C@H](C(=O)N[C@@H](CCCCN)C(=O)N[C@H](C(=O)N[C@H](C(=O)N[C@@H](CCCCN)C(=O)N[C@@H](CCCCN)C(=O)N[C@H](C(=O)O)C(C)C)C(C)C)C(C)C)[C@@H](C)O)[C@@H](C)CC [Myr-B] (Myristoyl-WRGITKVVKKV-OH; C-terminus assumed) |  | 5.1 ± 0.8 | 8 | 2 | 3 | 7 | 3 | 7 | 1 | 1 | 1 | 
CCCCCCCCCCCCCC(=O)N[C@@H](Cc1c[nH]c2ccccc12)C(=O)N[C@H](C(=O)N[C@H](C(=O)N[C@@H](CCCCN)C(=O)N[C@@H](CCCCN)C(=O)N[C@H](C(=O)N[C@@H](CCCCN)C(=O)NCC(=O)N[C@@H](CC(C)C)C(=O)N[C@@H](CC(C)C)C(=O)N[C@@H](CCCCN)C(=O)O)C(C)C)C(C)C)C(C)C [Myr-C] (Myristoyl-WVVKKVKGLLK-OH; C-terminus assumed) |  | 5.1 ± 0.4 |  |  |  |  |  |  |  |  |  | 28.5
